Results published in ChEMBL document CHEMBL1201862, “PubChem BioAssay data set” (2004).
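Interpolation was linear, between the two tested concentrations surrounding the appropriate level; five concentrations were tested over 48 hours in 96-well plates. The concentration for 50% growth inhibition is given as GI50.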 The source made the active and inactive calls. Cut-off read from the data, not from the text of the source: active = GI50 up to about 1.1 µM and inactive = higher.

What was measured:
Assay in all cases: DTP human tumour cell line panel, 48 h
LOX IMVI = test system: LOX IMVI
MDA-MB-231 = test system: MDA-MB-231
SF-539 = test system: SF-539
HT-29 = test system: HT-29
CAKI-1 = test system: CAKI-1
A549 = test system: A549
TK-10 = test system: TK-10
HCT-15 = test system: HCT-15
OVCAR-8 = test system: OVCAR-8
SW-620 = test system: SW-620
NCI/ADR-RES = test system: NCI/ADR-RES
SN12C = test system: SN12C
ACHN = test system: ACHN
CCRF-CEM = test system: CCRF-CEM
Hs-578T = test system: Hs-578T
MOLT-4 = test system: MOLT-4
786-0 = test system: 786-0
NCI-H23 = test system: NCI-H23
NCI-H460 = test system: NCI-H460
EKVX = test system: EKVX
A498 = test system: A498
SK-MEL-28 = test system: SK-MEL-28
HCT-116 = test system: HCT-116
UO-31 = test system: UO-31
SF-268 = test system: SF-268
MCF7 = test system: MCF7
U-251 = test system: U-251
SNB-19 = test system: SNB-19
DU-145 = test system: DU-145
COLO 205 = test system: COLO 205
MDA-MB-435 = test system: MDA-MB-435
SR = test system: SR
BT-549 = test system: BT-549
NCI-H226 = test system: NCI-H226
KM12 = test system: KM12
OVCAR-3 = test system: OVCAR-3
M14 = test system: M14
SF-295 = test system: SF-295
IGROV-1 = test system: IGROV-1
T47D = test system: T47D
SK-OV-3 = test system: SK-OV-3
SNB-75 = test system: SNB-75
SK-MEL-5 = test system: SK-MEL-5
PC-3 = test system: PC-3
MDA-N = test system: MDA-N
HL-60 = test system: HL-60
OVCAR-5 = test system: OVCAR-5
UACC-257 = test system: UACC-257
RPMI-8226 = test system: RPMI-8226
UACC-62 = test system: UACC-62
K562 = test system: K562
HOP-62 = test system: HOP-62
HOP-92 = test system: HOP-92
SK-MEL-2 = test system: SK-MEL-2

O=c1[nH]c(N/N=C\C(=N/Nc2nc3ccccc3c(=O)[nH]2)C(O)C(O)C(O)CO)nc2ccccc12 (centres undefined)
GI50 (LOX IMVI): > 100 µM (inactive) | GI50 (MDA-MB-231): > 100 µM (inactive) | GI50 (SF-539): > 100 µM (inactive) | GI50 (HT-29): > 100 µM (inactive) | GI50 (CAKI-1): > 100 µM (inactive) | GI50 (A549): > 100 µM (inactive) | GI50 (TK-10): > 100 µM (inactive) | GI50 (HCT-15): > 100 µM | GI50 (OVCAR-8): > 100 µM (inactive) | GI50 (SW-620): > 100 µM (inactive) | GI50 (NCI/ADR-RES): > 100 µM (inactive) | GI50 (SN12C): > 100 µM (inactive) | GI50 (ACHN): > 100 µM (inactive) | GI50 (CCRF-CEM): > 100 µM (inactive) | GI50 (Hs-578T): > 100 µM (inactive) | GI50 (MOLT-4): > 100 µM (inactive) | GI50 (786-0): > 100 µM (inactive) | GI50 (NCI-H23): > 100 µM (inactive) | GI50 (NCI-H460): > 100 µM (inactive) | GI50 (EKVX): > 100 µM (inactive) | GI50 (A498): > 100 µM (inactive) | GI50 (SK-MEL-28): > 100 µM (inactive) | GI50 (HCT-116): > 100 µM (inactive) | GI50 (UO-31): > 100 µM (inactive) | GI50 (SF-268): > 100 µM (inactive) | GI50 (MCF7): > 100 µM (inactive) | GI50 (U-251): > 100 µM (inactive) | GI50 (SNB-19): > 100 µM (inactive) | GI50 (DU-145): > 100 µM (inactive) | GI50 (COLO 205): > 100 µM (inactive) | GI50 (MDA-MB-435): > 100 µM (inactive) | GI50 (SR): > 100 µM (inactive) | GI50 (BT-549): > 100 µM (inactive) | GI50 (NCI-H226): > 100 µM (inactive) | GI50 (KM12): > 100 µM (inactive) | GI50 (OVCAR-3): > 100 µM (inactive) | GI50 (M14): > 100 µM (inactive) | GI50 (SF-295): > 100 µM (inactive) | GI50 (IGROV-1): > 100 µM (inactive) | GI50 (T47D): > 100 µM (inactive) | GI50 (SK-OV-3): > 100 µM (inactive) | GI50 (SNB-75): > 100 µM (inactive) | GI50 (SK-MEL-5): > 100 µM (inactive) | GI50 (PC-3): > 100 µM (inactive) | GI50 (MDA-N): > 100 µM (inactive) | GI50 (HL-60): > 100 µM (inactive) | GI50 (OVCAR-5): > 100 µM (inactive) | GI50 (UACC-257): > 100 µM (inactive) | GI50 (RPMI-8226): > 100 µM (inactive) | GI50 (UACC-62): > 100 µM (inactive) | GI50 (K562): > 100 µM (inactive) | GI50 (HOP-62): > 100 µM (inactive) | GI50 (HOP-92): > 100 µM (inactive) | GI50 (SK-MEL-2): > 100 µM (inactive)
